The nature of one data set: in vivo. The conditions noted are these: for Co (Brain), highest concentration achieved in mouse brain: i.v. injection of 3 mg/kg; for Kp: in vivo. On the procedure:
FIG. 5: Pharmacokinetics of pro-galantamine Gln-1062 (3 mg/kg) in the mouse. […] FIG. 5b is an excerpt (“zoom”) of FIG. 5a, showing the concentration range between 0.00 and 1.00 μg/g (substance/body weight) more in detail.
Co is the highest pro-galantamine concentration (ng/ml) achieved in mouse brain after i.v. injection of 3 mg/kg of pro-galantamine. R-Pro is the brain-to-blood concentration ratio of pro-galantamine, R-Gal that of galantamine under these experimental conditions. For comparison, Co and R-Gal are also provided for i.v. injection of the same amount of galantamine.
Determination of the pharmacokinetic profiles of Gln-1062 and its cleavage product galantamine in blood and brain. Determine the brain-to-blood concentration ratios of Gln-1062 and its cleavage product galantamine, and assess the blood-brain barrier penetration capacities.
Analytical method for estimation of Gln-1062 was evaluated for its linearity, precision & accuracy and recovery in SAM blood and brain homogenate using LC/MS/MS.
Blood samples were collected from the retro-orbital plexus. 0.5 ml of blood was collected into a pre-labeled polypropylene micro centrifuge tube containing sodium citrate as the anticoagulant, and kept on ice.
Immediately after blood withdrawal, brain was perfused with phosphate buffer saline (pH 7.4), removed and frozen on dry ice.
Brain samples were thawed on ice and weighed. n appropriate volume ice cold homogenizing media (methanol:water::20:80,v/v) added. n ice, homogenized the brain sample with the polytron homogenizer and make up the volume with homogenizing media to get 1 gm of brain per 4 mL of homogenate. after homogenizing, immediately freezed the brain homogenate samples at −80° C. until analysis.

In data set [1] the target is T1, a4β2 neuronal nicotinic acetylcholine receptor (Homo sapiens, UniProt P17787+P43681).
T1 construct: expressed in transfected cells; host or cells: HEK-293
T1 sequence (P43681 29-627 limits assumed): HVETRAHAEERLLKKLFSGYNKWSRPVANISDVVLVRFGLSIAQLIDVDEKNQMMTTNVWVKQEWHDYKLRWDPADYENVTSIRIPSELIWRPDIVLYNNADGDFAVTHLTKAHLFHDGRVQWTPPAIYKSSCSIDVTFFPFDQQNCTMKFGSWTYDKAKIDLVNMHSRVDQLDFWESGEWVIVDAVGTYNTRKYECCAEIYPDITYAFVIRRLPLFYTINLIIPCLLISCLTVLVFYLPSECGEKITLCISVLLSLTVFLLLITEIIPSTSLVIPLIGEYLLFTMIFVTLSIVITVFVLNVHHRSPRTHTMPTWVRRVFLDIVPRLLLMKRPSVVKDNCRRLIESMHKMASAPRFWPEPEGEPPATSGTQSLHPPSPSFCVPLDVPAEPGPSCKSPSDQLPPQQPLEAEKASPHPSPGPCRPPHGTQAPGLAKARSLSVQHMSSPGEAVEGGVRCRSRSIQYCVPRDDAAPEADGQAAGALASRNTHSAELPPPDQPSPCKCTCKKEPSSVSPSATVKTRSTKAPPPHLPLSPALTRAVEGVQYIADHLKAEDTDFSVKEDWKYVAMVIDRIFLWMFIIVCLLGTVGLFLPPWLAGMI
T1 sequence (P17787 26-502): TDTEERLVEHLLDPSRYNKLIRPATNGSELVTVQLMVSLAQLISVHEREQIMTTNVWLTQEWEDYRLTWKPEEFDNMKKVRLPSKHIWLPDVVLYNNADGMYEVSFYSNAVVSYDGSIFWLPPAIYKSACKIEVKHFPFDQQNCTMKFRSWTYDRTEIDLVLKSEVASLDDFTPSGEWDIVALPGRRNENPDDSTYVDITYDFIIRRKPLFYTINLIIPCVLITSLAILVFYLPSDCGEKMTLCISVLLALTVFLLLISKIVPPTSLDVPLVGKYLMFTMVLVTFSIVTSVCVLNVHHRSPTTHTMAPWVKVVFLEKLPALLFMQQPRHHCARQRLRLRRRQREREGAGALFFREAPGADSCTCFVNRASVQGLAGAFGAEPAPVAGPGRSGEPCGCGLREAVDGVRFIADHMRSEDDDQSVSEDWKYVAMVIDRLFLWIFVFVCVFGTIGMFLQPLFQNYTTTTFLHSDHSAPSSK
The experiment in a line: Whole-cell patch clamp recording of allosteric potentiation in HEK-293 cells. It counts as cell-based. The procedure: FIG. 4: Interaction of galantamine and pro-galantamine with a4β2 neuronal nicotinic acetylcholine receptor ectopically expressed in HEK-293 cells. The increase in response to acetylcholine in the presence of galantamine and Gln-1062, respectively, was determined by whole-cell patch clamp recording. Galantamine achieved a maximal enhancement of response of ˜40% whereas the pro-galantamine achieved a maximal enhancement of only ˜17%.
Investigation of the allosteric modulation effect of drug candidates on nicotinic acetylcholine receptors (nAChRs) expressed in HEK-293 cells by electrophysiology. Results shown as FIG. 4.
Single HEK-293 cells expressing either human α4β2, human α3β4, or chimeric chicken α7 (with mouse 5HT3) nAChR were plated on fibronectin-coated cover slips for 3 days before measurement. […] A programmable puller (Sutter, USA) was used to prepare a twin pair of ready for use pipettes. […] To evaluate an allosteric potentiating ligand (APL) effect of selected compounds on each subtype of nAChR, they were added to stimulating nicotine solutions at the following concentrations: 1, 5, 10, 50, 100, 500, 1,000, 5,000 and 10,000 nM, and solutions were applied to the cell surface during 500 ms pulses through the U-tube, and then corresponding currents, digitized to 10 kHz, were recorded for 10 s. […]
In general terms: Patch clamp records ionic current or voltage across a cell membrane.

Data set [2] relates to scopolamine-induced amnesia in mice. As to the kind of experiment: Reversal from scopolamine-induced amnesia in mice, T-maze alternation. It counts as in vivo, mouse. The note with it: i.p. On the procedure: Scopolamine induces a memory deficit that can be measured by […] alternation in a T-maze trial. The cognition enhancing drugs were i.p. injected at several different doses together with scopolamine 20 min before a T-maze trial. Recovery was measured as a function of dose, and the EC50 was determined for each drug.
Analysis of variance (ANOVA) was performed on the result data.

A further data set deals with T2, brain cholinesterase (Mus musculus, UniProt P21836).
T2 construct: from tissue; host or cells: mouse brain homogenate
T2 sequence (P21836 32-614): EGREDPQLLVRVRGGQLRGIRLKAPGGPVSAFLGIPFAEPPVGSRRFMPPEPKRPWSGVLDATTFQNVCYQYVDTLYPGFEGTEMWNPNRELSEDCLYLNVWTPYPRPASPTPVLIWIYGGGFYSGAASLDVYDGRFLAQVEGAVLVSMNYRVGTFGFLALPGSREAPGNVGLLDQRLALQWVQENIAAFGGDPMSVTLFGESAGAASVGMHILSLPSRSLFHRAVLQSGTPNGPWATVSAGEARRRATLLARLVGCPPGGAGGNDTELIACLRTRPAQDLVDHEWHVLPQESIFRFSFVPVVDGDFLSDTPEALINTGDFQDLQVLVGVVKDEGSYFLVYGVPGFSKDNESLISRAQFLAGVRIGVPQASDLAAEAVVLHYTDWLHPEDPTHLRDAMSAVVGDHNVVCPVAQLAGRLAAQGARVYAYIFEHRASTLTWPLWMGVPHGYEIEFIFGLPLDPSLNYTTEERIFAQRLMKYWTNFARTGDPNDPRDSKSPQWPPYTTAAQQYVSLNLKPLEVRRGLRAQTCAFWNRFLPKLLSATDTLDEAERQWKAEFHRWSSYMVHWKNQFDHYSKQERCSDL
It counts as biochemical. The conditions noted are these: mouse brain homogenate, 200 μM acetylthiocholine; pro-galantamines up to 50 μM.

For data set [3] the following is noted: cited from earlier work.
For data set [4] the following is noted: unmodified drug; cited from earlier work.

Description for brain cholinesterase: A 20% mouse brain homogenate was used, supplemented with 200 μM of acetylthiocholine as substrate, and the initial reaction kinetics were measured according to Riddles P W, Blakeley R L, Zerner B., “Reassessment of Ellman's reagent” Methods Enzymol.
The brain is removed from the animal (mouse), shock frozen in liquid nitrogen and stored at minus 80° C. until use. Before preparing the extract, the frozen brain is thawed on ice and the weight is determined. Ice cold buffer (130 mM NaCl, 5 mM KCl, 2.5 mM CaCl2, 1 mM MgCl2, 5 mM Glucose, 5 mM HEPES, pH 7.4) is added to the thawed mouse brain (1:4, weight to volume, resulting in a 20% brain homogenate). The tissue is then homogenized in a potter homogeniser on ice, moving the piston up and down 11 times at 240 rpm. The freshly prepared mouse brain homogenate is divided into aliquots.
A modified Ellmann's esterase test is used. Briefly the method relies on the cleavage of the substrate acetylthiocholine to acetate and thiocholine. […] The inhibition is expressed as percent of the non inhibited reaction according to following equation: […]

The term melting point denotes the temperature of the solid-liquid transition. For the compound `C=C[C@@]12C=C[C@H](O)C[C@@H]1Oc1c(OC)ccc(CNC)c12` [10,11-Seco-11,12-dehydro-galantamine, (3R,4aS,9bS)-6-Methoxy-9-methylaminomethyl-3,4,4a,9b-tetrahydro-9b-vinyl-dibenzofuran-3-ol], the melting point was in the range of 127 to 129 °C.

For the compound `CCC(=O)O[C@H]1C=C[C@@]23CCN(C)Cc4ccc(OC)c(c42)O[C@H]3C1` [GLN-0978], in “in vivo”, the “Co (Brain), highest concentration achieved in mouse brain” value (from here on “Co (Brain)”) came out at 1985 ng/mL. The same compound yielded a Kp in the data set “in vivo” (mouse, iv, 3 mg/kg) of 6.9.

As to `COc1ccc2c3c1O[C@H]1C[C@@H](OC(=O)C(C)C)C=C[C@@]31CCN(C)C2` [GLN-0979], the “Co (Brain)” value in the data set “in vivo” stood at 3166 ng/mL. This compound gave a Kp in the data set “in vivo” (mouse, iv, 3 mg/kg) of 6.2.

On to `CCCCCC(=O)O[C@H]1C=C[C@@]23CCN(C)Cc4ccc(OC)c(c42)O[C@H]3C1` [GLN-0993], for which, in the data set “in vivo”, the “Co (Brain)” value worked out at 2150 ng/mL. In addition, the Kp in “in vivo” (mouse, iv, 3 mg/kg) is 6.4.

`COc1ccc2c3c1OC1C[C@@H](OC(=O)c4ccccc4)C=C[C@@]31CCN(C)C2` (stereo partly drawn) [GLN-1062, (4aS,6R,8aS)-4a,5,9,10,11,12-Hexahydro-3-methoxy-11-methyl-6H-benzofuro[3a,3,2-ef][2]benzazepin-6-ol, benzoate (ester)]: in data set [1], the “maximal enhancement of response to acetylcholine” value is reported as around 17%. Further, the Kp in the data set “in vivo” (SAM, mouse) was above 19; in the data set “in vivo” (mouse, iv, 3 mg/kg), 19.3. Moreover, the “Co (Brain)” value in “in vivo” was 4812 ng/mL. For the same compound, the “concentration of GLN-1062 in blood at start of curve” value in the data set “in vivo” (mouse, 3 mg/kg, FIG. 5b) is recorded as “about 0.3 μg/g”. Further, the “potency relative to galantamine in reversing scopolamine-induced amnesia” value in data set [2] is recorded as “approximately 4 times”. The “inhibition of brain cholinesterase” value against brain cholinesterase is reported as “little, if any cholinesterase inhibitory activity”.

In the case of `CCC(C)C(=O)O[C@H]1C=C[C@@]23CCN(C)Cc4ccc(OC)c(c42)OC3C1` (stereo partly drawn) [GLN-1067], the “Co (Brain)” value in “in vivo” was determined as 4665 ng/mL. This compound displayed a Kp in “in vivo” (mouse, iv, 3 mg/kg) of 7.5.

Consider `COc1ccc2c3c1OC1C[C@@H](OC(=O)C4CC4)C=C[C@@]31CCN(C)C2` (stereo partly drawn) [GLN-1076], for which the “Co (Brain)” value in the data set “in vivo” was determined as 1245 ng/mL. This compound gave a Kp in the data set “in vivo” (mouse, iv, 3 mg/kg) of 1.1.

Consider `COc1ccc2c3c1O[C@H]1C[C@@H](O)C=C[C@@]31CCN(C)C2` [Galantamine], for which the “tissue to plasma ratio (T/P), spleen” value in data set [3] (female rat) is listed as around 20. Further, in data set [3] (male and female rat), the “tissue to plasma ratio (T/P), kidney” value is 10-15; the “tissue to plasma ratio (T/P), salivary and adrenal gland” value is listed as 7-14. In data set [3] (rat), the “brain to plasma ratio (T/P)” value is listed as around 1.5; the “tissue to plasma ratio (T/P), lung, liver, heart, skeletal muscle and testes” value is given as 2-4. Besides, the brain-to-plasma ratio in data set [4] is recorded as around 1.3. Further, the “maximal enhancement of response to acetylcholine” value in data set [1] is around 40%. The “Co (Brain)” value in “in vivo” was 1741 ng/mL. Also, the Kp in the data set “in vivo” (mouse, 3 mg/kg) is around 1.3.

The record behind these values is patent US20090253654A1 (priority 2005, published 2009).
